Key:
[1] = Non-enzymatic hydrolysis of HMB esters in phosphate buffer; type: physicochemical; conditions: for HMB/HMB-ester ratio for non-enzyme catalyzed hydrolysis: ester 1 mM, phosphate buffer pH 7.2, approx. 25° C., 24 hours
Protocol: To carry out the hydrolysis of the ester, HMB-methyl ester (1 mM) was added to a 40 mL reaction vial along with water (12 mL) and a 0.1 M phosphate buffer having a pH of 7.2 (2 mL). The reaction was carried out at a constant temperature of, approximately 25° C. and constant stirring over a period of 24 hours. During the course of the reaction, the pH of the reaction mixture was maintained at 7.2. After the reaction was complete, the reaction solvents were removed from the reaction mixture with a rotary evaporator.
(§1) The non-enzymatic hydrolysis and the lipase mediated hydrolysis reactions were each carried out at a constant temperature of approximately 25° C. with constant stirring over the course of a 24 hour period. During the course of reaction pH of the reaction mixture was maintained at 7.2. After the reaction was complete, the reaction solvents were removed from the reaction mixture with a rotary evaporator.
(§2) After each of the hydrolysis reactions, the dry hydrolysis reaction product containing the α-hydroxy acid of HMB was dissolved in ethanol (10 mL), a sample of the reaction product solution (1 mL) was taken and diluted with additional ethanol (9 mL) and the further diluted solution was filtered through a filter having a pore size of 2 μm (Model manufactured by Millipore Corp. of Bedford, Mass.). The filtered extract was then introduced into the liquid chromatograph and the free acid and residual ester were separated on a C-8 reverse phase liquid chromatography column of the type described above.
(§3) Ethanol was removed from the remaining product mixture by rotary evaporation and the α-hydroxy acid product was re-dissolved in ethyl acetate (5 mL). The solution containing the α-hydroxy acid product was transferred to a 15 mL centrifuge tube to which 1 M sodium bicarbonate (6 mL) was added after which the centrifuge tube was shaken for a period of about five minutes, thus forming an ethyl acetate layer containing HMB-methyl ester and a sodium bicarbonate layer containing D- and L-enantiomers of the α-hydroxy acid, HMB. These layers were then separated with a centrifuge and each of the separated layers were brought to near dryness with a rotary evaporator and the residue from the bicarbonate layer was dissolved in ethanol (5 mL) to form a solution which was filtered and analyzed for D- and L-enantiomers of HMB by chiral liquid chromatography in accordance with the method set forth below.
(§4) The dry residue from the ethyl acetate layer containing HMB-methyl ester was hydrolyzed with 6N HCl (2 mL) for a period of two hours to produce HMB which was solubilized in ethanol. The ethanol solutions were filtered and analyzed for D- and L-enantiomers of HMB by chiral liquid chromatography in accordance with the method set forth below.
(§5) Separation of the D- and L-forms of the α-hydroxy acid of HMB present in the sodium bicarbonate phase was carried out by liquid chromatography (LC) with a UV absorbance detector in tandem with electrospray ionization mass spectrometry in the negative mode (ESI(−)MS). […] The electrospray ionization mass spectrometer utilized was manufactured by Hitachi High Technologies (Model M-8000). The mobile phase composition consisted of 70% ammonium acetate buffer (pH 4, 30 mM) and 30% methanol. A macrocyclic antibiotic based column (Chirobiotic-TAG), manufactured by Advanced Separation Technologies, Inc., Whippany, N.J., was used for the chiral liquid chromatography.

[2] = molecular target: T1, porcine pancreatic lipase (PPL) (Sus scrofa, UniProt P00591); experiment: PPL lipase catalyzed hydrolysis of HMB esters; type: biochemical; conditions: for HMB/HMB-ester ratio for PPL lipase catalyzed hydrolysis: ester 1 mM, PPL 120 mg, pH 7.2, approx. 25° C., 24 hours; for Enantioselectivity of hydrolysis: Free Acid (L/D) / Enantioselectivity of hydrolysis: Ester (L/D): lipase PPL; for Enantioselectivity of hydrolysis: Free Acid (L/D): chiral LC of HMB from bicarbonate layer; for Enantioselectivity of hydrolysis: Ester (L/D): unhydrolyzed ester, chiral LC after 6N HCl hydrolysis; for extent of ester hydrolysis (in words): PPL, RPLC
T1 sequence (P00591 1-450): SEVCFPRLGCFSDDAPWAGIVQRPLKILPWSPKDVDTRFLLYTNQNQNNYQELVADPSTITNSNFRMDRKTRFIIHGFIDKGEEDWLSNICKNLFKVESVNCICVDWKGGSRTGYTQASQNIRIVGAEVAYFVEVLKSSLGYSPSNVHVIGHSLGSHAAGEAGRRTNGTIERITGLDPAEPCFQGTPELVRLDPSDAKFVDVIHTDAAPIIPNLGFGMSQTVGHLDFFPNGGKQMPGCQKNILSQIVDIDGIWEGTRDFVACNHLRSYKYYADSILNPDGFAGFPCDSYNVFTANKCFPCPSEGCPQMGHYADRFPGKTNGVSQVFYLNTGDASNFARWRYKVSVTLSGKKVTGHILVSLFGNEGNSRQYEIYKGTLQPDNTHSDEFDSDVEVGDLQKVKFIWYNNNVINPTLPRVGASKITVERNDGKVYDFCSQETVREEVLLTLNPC
Protocol: In another lipase mediated hydrolysis, HMB-methyl ester (1 mM) was added to a 40 mL reaction vial along with water (12 mL), a 0.1 M phosphate buffer with a pH of 7.2 (2 mL) and PPL (120 mg).
as §1, §2, §3, §4, §5
As part of these investigations, HMB-butyl ester and HMB obtained from the hydrolysis were recovered from the reaction mixture through portioning in ethyl acetate and […] bicarbonate solution. The HMB acid was recovered from the bicarbonate solution; it was introduced into an enantioselective HPLC system. The recovered HMB-butyl ester was hydrolyzed with 6N HCl (chemically) and then introduced into the enantioselective HPLC system. Chromatograms of HMB enantiomers obtained after non-enzymatic and PPL catalyzed HMB-butyl ester hydrolysis are illustrated in FIGS. 7A-B respectively.

Candida rugosa lipase = Candida rugosa lipase catalyzed hydrolysis of HMB esters; type: biochemical; conditions: for HMB/HMB-ester ratio for Candida rugosa lipase catalyzed hydrolysis: ester 1 mM, lipase 120 mg, pH 7.2, approx. 25° C., 24 hours; for extent of ester hydrolysis (in words): Candida rugosa lipase, RPLC
Protocol: In another lipase mediated hydrolysis, HMB-methyl ester (1 mM) was added to a 40 mL reaction vial along with water (12 mL), a 0.1 M phosphate buffer with a pH of 7.2 (2 mL) and Candida rugosa (120 mg).
as §1, §2, §3, §4, §5

[3] = molecular target: T2, Novo 435 (Candida antarctica) lipase (Moesziomyces antarcticus, UniProt P41365); experiment: Novo 435 (Candida antarctica) lipase catalyzed hydrolysis of HMB esters; type: biochemical; conditions: for HMB/HMB-ester ratio for Novo 435 (Candida antarctica) lipase catalyzed hydrolysis: ester 1 mM, immobilized lipase 6 mg, pH 7.2, approx. 25° C., 24 hours; for extent of ester hydrolysis (in words): Novo 435, RPLC
T2 construct: purchased Novo (only as part of the product name) 435 (also given as 438)
Protocol: In another lipase mediated hydrolysis, HMB-methyl ester (1 mM) was added to a 40 mL reaction vial along with water (12 mL), a 0.1 M phosphate buffer with a pH of 7.2 (2 mL) which was contacted with an immobilized sample of Novo 438 (Candida antarctica) (6 mg).
as §1, §2

Aspergillus niger lipase = Aspergillus niger lipase catalyzed hydrolysis of HMB esters; type: biochemical; conditions: for HMB/HMB-ester ratio for Aspergillus niger lipase catalyzed hydrolysis: ester 1 mM, lipase 120 mg, pH 7.2, approx. 25° C., 24 hours; for extent of ester hydrolysis (in words): Aspergillus niger lipase, RPLC
Protocol: In one lipase mediated hydrolysis, HMB-methyl ester (1 mM) was added to a 40 mL reaction vial along with water (12 mL), a 0.1 M phosphate buffer with a pH of 7.2 (2 mL) and Aspergillus niger (120 mg).
as §1, §2, §3, §4, §5

immobilized PPL = molecular target: T3, immobilized PPL (Sus scrofa, UniProt P00591); experiment: Hydrolysis of HMB propyl ester using gel-bound (alginate-immobilized) PPL beads; type: biochemical, porcine; conditions: after a run of 3 hrs
T3 sequence (P00591 1-450): T1 sequence (P00591 1-450)
Protocol: Sodium alginate (500 mg), gelatin (300 mg) and water (9 ml) are introduced into and mixed in a 50 ml conical flask. The mix is then left undisturbed for 1 hour, after which the flask and its contents are autoclaved (120° C., 15 min.). The contents are then cooled at room temperature under continuous stirring. After the contents have cooled down, PPL (100 mg) in water (1 ml) is added to the flask and the contents stirred for further 15-20 min. Then glutaraldehyde (300 μl) is added to the flask contents and the mixture stirred for another 15 min. These contents are added drop-wise from a distance of around 10 cm by forcing them through the hypodermic needle in a 0.18M calcium chloride solution (2°-3° C.) . The gel breads solidify immediately upon contact with the calcium chloride solution, and after 30 min. are solidified. The solidified gel beads are washed 3-4 times with water to remove any loose enzyme from the surface.
The immobilized enzyme catalyst beads as prepared in the manner described in Example 6 were placed in a conical flask. […]
Reversed phase chromatography method was used for all the chromatograms set forth in the drawings. […] The reaction was monitored at 220 nm and gradient elution for the mobile phases used was 0 to 55% solvent B in 30 min.

[4] = Hydrolysis of HMB propyl ester with alginate beads without enzymes (control); type: physicochemical; conditions: water, 37° C., 2 hours and 3.30 hours
Protocol: Reversed phase chromatography method was used for all the chromatograms set forth in the drawings. The mobile phases chosen were water +0.1% trifluroacetic acid (TFA) (solvent A) and acetonitrile +0.1% TFA (solvent B). The column was maintained at 30° C. The reaction was monitored at 220 nm and gradient elution for the mobile phases used was 0 to 55% solvent B in 30 min.
The hydrolysis of HMBP was also checked using alginate beads without enzymes(CONTROL). The gel beads were placed in a conical flask of water (20 ml) and HMB propyl ester (240 mg) were added to it. The mixture was thereafter maintained at a temperature of 37° C. The chromatograms of FIGS. 15A and 15B are obtained for the product formed, for the same time constraints as before.

T2 sequence (P41365 26-342): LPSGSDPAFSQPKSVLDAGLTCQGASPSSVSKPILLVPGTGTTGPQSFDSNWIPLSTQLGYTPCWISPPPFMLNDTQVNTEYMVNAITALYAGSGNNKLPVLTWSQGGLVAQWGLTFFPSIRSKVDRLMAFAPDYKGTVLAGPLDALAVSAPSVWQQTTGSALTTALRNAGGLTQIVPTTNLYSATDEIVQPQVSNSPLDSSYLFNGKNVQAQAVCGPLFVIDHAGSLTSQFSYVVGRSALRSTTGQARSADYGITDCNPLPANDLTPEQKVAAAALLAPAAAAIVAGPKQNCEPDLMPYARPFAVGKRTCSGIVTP

SMILES | HMB/HMB-ester ratio for non-enzyme catalyzed hydrolysis [1] | HMB/HMB-ester ratio for PPL lipase catalyzed hydrolysis [2] | HMB/HMB-ester ratio for Candida rugosa lipase catalyzed hydrolysis (Candida rugosa lipase) | HMB/HMB-ester ratio for Novo 435 (Candida antarctica) lipase catalyzed hydrolysis [3] | HMB/HMB-ester ratio for Aspergillus niger lipase catalyzed hydrolysis (Aspergillus niger lipase) | Enantioselectivity of hydrolysis: Free Acid (L/D) (Aspergillus niger lipase; lipase Aspergillus niger, chiral LC of HMB from bicarbonate layer) | Enantioselectivity of hydrolysis: Ester (L/D) (Aspergillus niger lipase; lipase Aspergillus niger, unhydrolyzed ester, chiral LC after 6N HCl hydrolysis) | conversion of ester to HMB acid (immobilized PPL) [%] | hydrolysis with alginate beads without enzymes [4] | Enantioselectivity of hydrolysis: Free Acid (L/D) [2] | Enantioselectivity of hydrolysis: Ester (L/D) [2] | Enantioselectivity of hydrolysis: Free Acid (L/D) (Candida rugosa lipase; lipase Candida rugosa, chiral LC of HMB from bicarbonate layer) | Enantioselectivity of hydrolysis: Ester (L/D) (Candida rugosa lipase; lipase Candida rugosa, unhydrolyzed ester, chiral LC after 6N HCl hydrolysis) | ester hydrolyzed by non-enzymatic hydrolysis ([1]; FIG. 4A) | D- and L-HMB enantiomers obtained through chemical hydrolysis ([1]; non-enzymatic hydrolysis, FIG. 7A) | concentration of L-enantiomer relative to D-enantiomer of HMB obtained ([2]; PPL catalyzed hydrolysis, FIG. 7B) | extent of ester hydrolysis (in words) [2] | extent of ester hydrolysis (in words) (Candida rugosa lipase) | extent of ester hydrolysis (in words) [3] | extent of ester hydrolysis (in words) (Aspergillus niger lipase)
CSCCC(O)C(=O)OC(C)C (centres unmarked) [HMB-isopropyl ester, HMB isopropyl ester] | 0.36 | 3.3 | 9.8 | 165 | 0.81 | 68/32 | 32/68 | – | – | – | – | – | – | – | – | – | – | – | – | –
CCCOC(=O)C(O)CCSC (centres unmarked) [HMB-propyl ester, HMB propyl ester] | 0.09 | 1.69 | 84.45 | 52.27 | 149.24 | – | – | 50 | no hydrolysis | 75/25 | 22/78 | – | – | – | – | – | – | – | – | –
CCOC(=O)C(O)CCSC (centres unmarked) [HMB-ethyl ester, HMB ethyl ester] | 0.53 | 0.94 | 7.84 | – | 16.71 | – | – | – | – | 57/43 | 43/57 | 62/38 | 38/62 | – | – | – | – | – | – | –
CCCCOC(=O)C(O)CCSC (centres unmarked) [HMB-butyl ester, HMB butyl ester] | 0.09 | 2.0 | 42.6 | 176.3 | 160.57 | – | – | – | – | 81/19 | 19/81 | – | – | less than 1% | equal concentrations | nearly four times | only partial | Essentially all | Essentially all | Essentially all
COC(=O)C(O)CCSC (centres unmarked) [HMB-methyl ester, HMB methyl ester] | 1.45 | 2.53 | 62.37 | 128 | 4.55 | – | – | – | – | – | – | – | – | – | – | – | partial | near completion | near completion | partial
